Measurements taken from publication PMC4522657, “Identification of a DYRK1A Inhibitor that Induces Degradation of the Target Kinase using Co-chaperone CDC37 fused with Luciferase nanoKAZ” (Scientific Reports, 2015).

Assays:
FER = target: T1, FER (Homo sapiens, UniProt P16591); test: Kinase panel, CaNDY 1 µM; assay type: biochemical; details: CaNDY 1 µM relative to DMSO
T1 construct: purchased Carna Biosciences

FGFR4(V550L) = target: T2, FGFR4(V550L) (Homo sapiens, UniProt P22455, V550L); test: Kinase panel, CaNDY 1 µM; assay type: biochemical; details: CaNDY 1 µM relative to DMSO
T2 construct: purchased Carna Biosciences

FLT1 = target: T3, FLT1 (Homo sapiens, UniProt P17948); test: Kinase panel, CaNDY 1 µM; assay type: biochemical; details: CaNDY 1 µM relative to DMSO
T3 construct: purchased Carna Biosciences

KDR = target: T4, KDR (Homo sapiens, UniProt P35968); test: Kinase panel, CaNDY 1 µM; assay type: biochemical; details: CaNDY 1 µM relative to DMSO
T4 construct: purchased Carna Biosciences

PDGFRα(T674I) = target: T5, PDGFRα(T674I) (Homo sapiens, UniProt P16234, T674I); test: Kinase panel, CaNDY 1 µM; assay type: biochemical; details: CaNDY 1 µM relative to DMSO
T5 construct: purchased Carna Biosciences
T5 sequence (P16234 24-1089 T674I): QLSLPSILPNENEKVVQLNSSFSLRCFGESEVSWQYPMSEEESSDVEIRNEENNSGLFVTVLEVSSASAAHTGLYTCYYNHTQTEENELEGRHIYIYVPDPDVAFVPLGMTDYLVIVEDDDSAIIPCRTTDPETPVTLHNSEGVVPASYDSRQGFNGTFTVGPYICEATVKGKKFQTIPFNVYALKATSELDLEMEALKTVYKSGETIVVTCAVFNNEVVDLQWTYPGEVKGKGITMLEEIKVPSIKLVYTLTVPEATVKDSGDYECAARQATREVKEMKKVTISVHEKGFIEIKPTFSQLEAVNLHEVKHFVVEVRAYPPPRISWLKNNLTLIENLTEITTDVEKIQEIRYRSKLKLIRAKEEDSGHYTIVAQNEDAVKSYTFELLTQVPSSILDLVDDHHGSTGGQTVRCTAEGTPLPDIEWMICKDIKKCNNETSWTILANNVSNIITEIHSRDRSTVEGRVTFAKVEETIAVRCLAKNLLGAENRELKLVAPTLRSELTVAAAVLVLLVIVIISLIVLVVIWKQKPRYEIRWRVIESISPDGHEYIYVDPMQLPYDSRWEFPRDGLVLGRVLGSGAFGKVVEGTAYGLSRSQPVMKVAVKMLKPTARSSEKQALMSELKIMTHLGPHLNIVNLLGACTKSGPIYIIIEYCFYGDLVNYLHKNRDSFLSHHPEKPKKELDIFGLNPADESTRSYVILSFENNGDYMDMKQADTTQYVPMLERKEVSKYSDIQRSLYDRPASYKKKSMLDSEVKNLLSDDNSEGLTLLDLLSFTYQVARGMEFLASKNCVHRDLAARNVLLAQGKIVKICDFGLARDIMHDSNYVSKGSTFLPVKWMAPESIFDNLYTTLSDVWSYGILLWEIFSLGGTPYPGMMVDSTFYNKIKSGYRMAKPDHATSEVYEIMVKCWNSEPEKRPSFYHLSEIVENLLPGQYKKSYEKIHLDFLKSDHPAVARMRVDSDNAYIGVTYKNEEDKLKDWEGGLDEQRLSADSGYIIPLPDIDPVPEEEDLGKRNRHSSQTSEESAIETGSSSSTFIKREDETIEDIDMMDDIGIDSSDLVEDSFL

PYK2 = target: T6, PYK2 (Homo sapiens, UniProt Q14289); test: Kinase panel, CaNDY 1 µM; assay type: biochemical; details: CaNDY 1 µM relative to DMSO
T6 construct: purchased Carna Biosciences

TNK1 = target: T7, TNK1 (Homo sapiens, UniProt Q13470); test: Kinase panel, CaNDY 1 µM; assay type: biochemical; details: CaNDY 1 µM relative to DMSO
T7 construct: purchased Carna Biosciences

Erk2 = target: T8, Erk2 (Homo sapiens, UniProt P28482); test: Kinase panel, CaNDY 1 µM; assay type: biochemical; details: CaNDY 1 µM relative to DMSO
T8 construct: purchased Carna Biosciences

MAP2K6_Cascade = target: T9, MAP2K6_Cascade (Homo sapiens, UniProt P52564); test: Kinase panel, CaNDY 1 µM; assay type: biochemical; details: CaNDY 1 µM relative to DMSO
T9 construct: purchased Carna Biosciences

MSK1 = target: T10, MSK1 (Homo sapiens, UniProt O75582); test: Kinase panel, CaNDY 1 µM; assay type: biochemical; details: CaNDY 1 µM relative to DMSO
T10 construct: purchased Carna Biosciences
T10 sequence (O75582 whole entry): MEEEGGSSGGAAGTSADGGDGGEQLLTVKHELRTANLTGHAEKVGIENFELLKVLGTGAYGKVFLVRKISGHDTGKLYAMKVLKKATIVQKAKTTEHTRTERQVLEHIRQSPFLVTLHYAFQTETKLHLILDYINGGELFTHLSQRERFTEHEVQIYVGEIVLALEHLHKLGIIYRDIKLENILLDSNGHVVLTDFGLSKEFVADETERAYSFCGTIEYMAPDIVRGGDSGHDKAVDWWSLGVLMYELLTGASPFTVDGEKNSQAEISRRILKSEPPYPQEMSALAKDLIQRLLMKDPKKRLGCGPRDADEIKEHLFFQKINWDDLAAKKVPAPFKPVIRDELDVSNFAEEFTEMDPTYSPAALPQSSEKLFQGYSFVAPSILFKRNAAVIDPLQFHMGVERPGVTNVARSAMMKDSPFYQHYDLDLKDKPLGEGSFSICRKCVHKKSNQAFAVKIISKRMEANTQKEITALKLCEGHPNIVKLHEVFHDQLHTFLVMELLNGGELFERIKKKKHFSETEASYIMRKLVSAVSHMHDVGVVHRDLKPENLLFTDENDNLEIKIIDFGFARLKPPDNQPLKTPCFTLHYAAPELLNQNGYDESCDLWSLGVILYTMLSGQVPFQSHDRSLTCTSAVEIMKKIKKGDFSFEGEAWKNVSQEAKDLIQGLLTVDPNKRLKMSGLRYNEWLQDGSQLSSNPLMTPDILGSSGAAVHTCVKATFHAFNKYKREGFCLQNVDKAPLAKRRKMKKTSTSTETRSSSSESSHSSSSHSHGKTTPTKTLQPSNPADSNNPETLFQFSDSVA

PAK5 = target: T11, PAK5 (Homo sapiens, UniProt Q9P286); test: Kinase panel, CaNDY 1 µM; assay type: biochemical; details: CaNDY 1 µM relative to DMSO
T11 construct: purchased Carna Biosciences

PHKG2 = target: T12, PHKG2 (Homo sapiens, UniProt P15735); test: Kinase panel, CaNDY 1 µM; assay type: biochemical; details: CaNDY 1 µM relative to DMSO
T12 construct: purchased Carna Biosciences
T12 sequence (P15735 whole entry): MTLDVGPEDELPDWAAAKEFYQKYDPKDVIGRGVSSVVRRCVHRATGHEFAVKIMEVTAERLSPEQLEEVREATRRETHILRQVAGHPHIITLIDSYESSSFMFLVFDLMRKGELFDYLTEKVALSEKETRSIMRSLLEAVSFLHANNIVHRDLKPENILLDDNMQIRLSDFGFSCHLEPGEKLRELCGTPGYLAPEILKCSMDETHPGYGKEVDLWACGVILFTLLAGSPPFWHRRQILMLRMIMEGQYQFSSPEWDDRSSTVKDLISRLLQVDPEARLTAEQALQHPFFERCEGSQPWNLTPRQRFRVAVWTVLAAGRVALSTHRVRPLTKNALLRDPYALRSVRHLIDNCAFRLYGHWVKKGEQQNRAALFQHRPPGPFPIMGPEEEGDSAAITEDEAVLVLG

RSK4 = target: T13, RSK4 (Homo sapiens, UniProt Q9UK32); test: Kinase panel, CaNDY 1 µM; assay type: biochemical; details: CaNDY 1 µM relative to DMSO
T13 construct: purchased Carna Biosciences
T13 sequence (Q9UK32 whole entry): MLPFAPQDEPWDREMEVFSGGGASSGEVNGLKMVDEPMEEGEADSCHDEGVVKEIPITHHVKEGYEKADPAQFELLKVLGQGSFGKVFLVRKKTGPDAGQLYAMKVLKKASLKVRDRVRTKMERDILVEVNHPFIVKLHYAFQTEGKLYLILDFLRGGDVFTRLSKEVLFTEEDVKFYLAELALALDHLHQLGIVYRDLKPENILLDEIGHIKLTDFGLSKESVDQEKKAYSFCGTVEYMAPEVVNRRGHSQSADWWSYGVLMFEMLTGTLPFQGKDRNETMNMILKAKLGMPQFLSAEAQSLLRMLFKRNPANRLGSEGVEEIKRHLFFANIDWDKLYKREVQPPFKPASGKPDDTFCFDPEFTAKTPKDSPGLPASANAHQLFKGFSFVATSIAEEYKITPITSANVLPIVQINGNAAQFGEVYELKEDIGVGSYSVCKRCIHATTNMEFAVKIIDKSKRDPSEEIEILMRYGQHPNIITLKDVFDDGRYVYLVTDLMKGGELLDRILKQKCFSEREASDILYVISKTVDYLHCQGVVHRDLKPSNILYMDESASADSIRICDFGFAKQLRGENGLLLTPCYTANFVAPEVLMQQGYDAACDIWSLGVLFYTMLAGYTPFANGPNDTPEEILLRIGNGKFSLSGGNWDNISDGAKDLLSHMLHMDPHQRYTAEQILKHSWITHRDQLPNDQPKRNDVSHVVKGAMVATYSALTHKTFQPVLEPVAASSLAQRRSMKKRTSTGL

GST-tagged human DYRK1A = target: T14, GST-tagged human DYRK1A (Homo sapiens, UniProt Q13627); test: ATP kinetics assay; assay type: biochemical
T14 construct: purchased Life Technologies PV3785
Protocol: The kinase reaction for ATP kinetics was performed in a reaction mixture containing serially diluted inhibitors, 10 mM MOPS-KOH (pH 7.0), 10 mM magnesium acetate, 200 μM EDTA, 2.5–40 μM ATP, 0.125–0.4 μCi [γ-^32P]ATP, 5 μM DYRKtide (Anaspec, CA, USA), and 1 nM of GST-tagged human DYRK1A (Cat# PV3785, Life Technologies), for a final volume of 25 μl. The final concentration of DMSO was adjusted to 0.1%, regardless of the inhibitor concentration. The reaction mixture was incubated at 30 °C for 15 min, and phosphoric acid (final 5%) was then added to stop the reaction. 25 μL of the reaction mixture was dispensed onto P81, a phosphocellulose membrane (Whatman, GE Healthcare), and washed four times in 5% phosphoric acid. Cherenkov light from the incorporated ^32P was measured using a liquid scintillation counter. The kinase assay conditions, including the incubation period and the concentration of the kinases and substrates, were optimized to maintain linearity during the incubation. The net radioactivity was determined by subtracting the background count from the reaction mixture without kinase. The amount of incorporated ^32P was calculated from the standard line. The Km and Ki values were calculated with Prism6 software (GraphPad Software, San Diego, CA, USA) using the competitive inhibition model.

CLK1 = CLK1 (Homo sapiens, UniProt P49759); test: Western blot of target kinase expression in HEK293 cells; assay type: cell-based; parameters: endogenous in cells; host or cells: HEK293; details: CaNDY 2 μM, 4 days
CLK1, sequence (P49759 whole entry): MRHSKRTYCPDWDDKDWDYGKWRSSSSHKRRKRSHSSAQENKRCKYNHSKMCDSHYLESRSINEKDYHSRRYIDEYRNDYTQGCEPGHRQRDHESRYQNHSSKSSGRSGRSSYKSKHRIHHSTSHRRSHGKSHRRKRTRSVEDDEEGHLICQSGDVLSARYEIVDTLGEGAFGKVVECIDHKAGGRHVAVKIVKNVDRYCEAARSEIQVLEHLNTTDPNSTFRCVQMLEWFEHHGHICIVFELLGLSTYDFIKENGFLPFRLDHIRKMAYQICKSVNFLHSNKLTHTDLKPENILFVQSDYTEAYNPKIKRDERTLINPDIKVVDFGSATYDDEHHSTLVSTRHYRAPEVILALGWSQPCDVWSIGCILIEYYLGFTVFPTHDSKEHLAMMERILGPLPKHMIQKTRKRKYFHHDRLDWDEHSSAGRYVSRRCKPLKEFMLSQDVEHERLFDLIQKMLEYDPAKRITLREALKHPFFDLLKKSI
Protocol: (§1) To check selectivity of CaNDY for other kinases, we first examined protein expression of several kinases in HEK293 cells treated with CaNDY (2 μM) for 4 days. […] Third, protein expression of these kinases targeted by CaNDY (DYRK1A, DYRK1B, CLK1, and Haspin) was reassessed by Western blot analysis as performed in Fig. 7b.
(§2) Western blot analysis was performed using the antibodies described above. In brief, total cell lysates were separated by SDS-PAGE (5–20% gels; ATTO, Tokyo, Japan) under reducing conditions and then transferred to a PVDF membrane (PALL, SP, Brazil). Antibody reactions were performed with Can Get Signal® Immunoreaction Enhancer Solution (Toyobo). Peroxidase activities on the membrane were visualized with ECL Western Blotting Detection Reagents (GE Healthcare) or ImmunoStar® LD (Wako Pure Chemical Industries, Osaka, Japan), and a ChemiDoc^TM MP Imaging System (Bio-Rad, Hercules, CA, USA).

DYRK1B = DYRK1B (Homo sapiens, UniProt Q9Y463); test: as above; assay type: cell-based; parameters: endogenous in cells; host or cells: HEK293; details: CaNDY 2 μM, 4 days
DYRK1B, sequence (Q9Y463 whole entry): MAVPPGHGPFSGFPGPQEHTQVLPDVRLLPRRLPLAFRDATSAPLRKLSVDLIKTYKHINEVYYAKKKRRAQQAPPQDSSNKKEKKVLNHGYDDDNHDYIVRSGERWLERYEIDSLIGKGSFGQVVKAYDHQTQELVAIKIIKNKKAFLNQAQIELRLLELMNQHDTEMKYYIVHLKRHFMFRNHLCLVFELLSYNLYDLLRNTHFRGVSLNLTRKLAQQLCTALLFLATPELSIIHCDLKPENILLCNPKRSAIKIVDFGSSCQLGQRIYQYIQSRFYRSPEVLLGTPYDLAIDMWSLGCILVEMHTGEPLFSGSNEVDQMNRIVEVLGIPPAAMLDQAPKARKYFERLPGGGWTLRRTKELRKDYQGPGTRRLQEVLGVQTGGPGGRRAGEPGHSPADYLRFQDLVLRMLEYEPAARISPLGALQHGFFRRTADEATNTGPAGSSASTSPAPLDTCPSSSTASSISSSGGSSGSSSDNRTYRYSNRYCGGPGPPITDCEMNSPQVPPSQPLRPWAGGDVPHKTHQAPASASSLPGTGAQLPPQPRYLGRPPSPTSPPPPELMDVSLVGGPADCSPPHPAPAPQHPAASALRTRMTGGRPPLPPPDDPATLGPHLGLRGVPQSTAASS
Protocol: as §1, §2

Haspin = target: T15, Haspin (Homo sapiens, UniProt Q8TF76); test: as above; assay type: cell-based; parameters: endogenous in cells; host or cells: HEK293; details: CaNDY 2 μM, 4 days
T15 sequence (Q8TF76 1-798): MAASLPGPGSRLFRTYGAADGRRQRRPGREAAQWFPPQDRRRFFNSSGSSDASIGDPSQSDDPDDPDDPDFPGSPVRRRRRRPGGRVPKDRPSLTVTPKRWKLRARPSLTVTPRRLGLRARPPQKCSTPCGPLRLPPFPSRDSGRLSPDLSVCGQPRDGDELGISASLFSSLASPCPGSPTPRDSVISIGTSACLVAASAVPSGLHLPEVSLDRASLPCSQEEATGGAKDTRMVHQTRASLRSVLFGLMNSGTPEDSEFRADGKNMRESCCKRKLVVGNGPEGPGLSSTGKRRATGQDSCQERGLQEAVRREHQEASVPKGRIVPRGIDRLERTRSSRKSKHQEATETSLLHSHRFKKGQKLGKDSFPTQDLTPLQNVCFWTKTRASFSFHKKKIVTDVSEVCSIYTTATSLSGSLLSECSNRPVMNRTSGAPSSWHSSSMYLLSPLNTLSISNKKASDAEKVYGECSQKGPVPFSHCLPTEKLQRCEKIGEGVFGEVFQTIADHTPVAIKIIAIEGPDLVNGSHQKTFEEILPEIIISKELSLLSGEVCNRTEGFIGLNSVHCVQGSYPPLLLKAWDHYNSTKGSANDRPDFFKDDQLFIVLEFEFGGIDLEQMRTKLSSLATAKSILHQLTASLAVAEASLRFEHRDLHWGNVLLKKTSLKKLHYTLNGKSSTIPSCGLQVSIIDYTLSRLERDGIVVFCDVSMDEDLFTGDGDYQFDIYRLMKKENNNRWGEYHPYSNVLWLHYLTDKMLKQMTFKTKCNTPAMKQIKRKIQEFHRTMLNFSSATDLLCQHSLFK
Protocol: as §1, §2

T1 sequence (P16591 whole entry): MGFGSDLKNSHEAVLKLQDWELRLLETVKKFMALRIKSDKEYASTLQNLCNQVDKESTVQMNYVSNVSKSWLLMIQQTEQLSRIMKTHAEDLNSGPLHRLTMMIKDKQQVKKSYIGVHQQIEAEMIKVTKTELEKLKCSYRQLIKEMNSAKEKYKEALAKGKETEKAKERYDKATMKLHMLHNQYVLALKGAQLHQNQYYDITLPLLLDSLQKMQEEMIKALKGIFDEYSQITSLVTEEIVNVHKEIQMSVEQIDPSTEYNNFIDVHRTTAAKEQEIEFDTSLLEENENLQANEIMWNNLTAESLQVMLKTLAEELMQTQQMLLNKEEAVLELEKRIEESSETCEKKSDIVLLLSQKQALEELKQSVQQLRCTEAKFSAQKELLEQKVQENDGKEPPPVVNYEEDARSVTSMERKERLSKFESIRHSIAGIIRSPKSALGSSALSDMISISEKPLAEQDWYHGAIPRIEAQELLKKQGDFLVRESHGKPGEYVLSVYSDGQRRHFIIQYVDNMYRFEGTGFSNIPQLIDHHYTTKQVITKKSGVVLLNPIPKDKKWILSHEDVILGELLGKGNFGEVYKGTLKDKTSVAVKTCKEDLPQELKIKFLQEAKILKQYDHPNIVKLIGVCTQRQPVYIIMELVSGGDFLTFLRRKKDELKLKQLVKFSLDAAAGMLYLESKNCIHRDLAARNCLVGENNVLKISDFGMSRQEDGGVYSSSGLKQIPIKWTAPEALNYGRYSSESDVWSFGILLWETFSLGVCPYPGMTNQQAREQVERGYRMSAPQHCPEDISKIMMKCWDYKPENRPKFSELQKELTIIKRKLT

In the case of `[H]/N=C1/NC(=O)C(=Cc2ccc3c(c2)CCO3)S1` [CaNDY, (Z)-5-[(2,3-dihydrobenzofuran-5-yl)methylene]-2-iminothiazolidin-4-one], the remaining activity at 1 µM (FER) is reported as 98.6%, the remaining activity at 1 µM (FGFR4(V550L)) is reported as 105% and the remaining activity at 1 µM (FLT1) is reported as 102%. For the same compound, the remaining activity at 1 µM (KDR) was 102%, the remaining activity at 1 µM (PDGFRα(T674I)) was 94% and the remaining activity at 1 µM (PYK2) was 98.7%. For the same compound, the remaining activity at 1 µM (TNK1) was 99.7%, the remaining activity at 1 µM (Erk2) was 97.6% and the remaining activity at 1 µM (MAP2K6_Cascade) was 99.5%. The remaining activity at 1 µM (MSK1) was 98.1%, the remaining activity at 1 µM (PAK5) was 97.5% and the remaining activity at 1 µM (PHKG2) was 88%. For the same compound, the “%Activity” value (RSK4) was 94.6%, the Ki (GST-tagged human DYRK1A; competitive inhibition model, 2.5–40 μM ATP) was 1.92 nM and the mode of inhibition (GST-tagged human DYRK1A; double-reciprocal plots) was “competed with ATP on a single site of DYRK1A”. The “protein expression of CLK1” value (CLK1) was “decreased expression”, the “protein expression of DYRK1B” value (DYRK1B) was “decreased expression” and the “protein expression of Haspin” value (Haspin) was “decreased expression”.
